Results: publication PMC10135569, “Does Enhanced Structural Maturity of hiPSC-Cardiomyocytes Better for the Detection of Drug-Induced Cardiotoxicity?” (Biomolecules, 2023)

Experiments:
[1] = test system: hiPSC-CMs (iCell2 Cardiomyocytes) 2D monolayers; test: Membrane potential (action potential) recordings with FluoVolt voltage-sensitive dye on the CellOPTIQ platform; type: cell-based, human; settings: for activity at 0.03 µM / activity at 0.1 µM / activity at 0.3 µM / activity at 1 µM: Homo sapiens, Cardiomyocyte, 0.5 h, 30 min, delta over DMSO 0.1%
Description: (§1) Cardiomyocytes (FUJIFILM Cellular Dynamics, Madison, WI, USA) were kept at −190 °C and prepared for culture as per the manufacturer’s instructions.
(§2) Standard fibronectin vs. Matrix Plus well coating: The cells were cultured using two different coatings in a humidified incubator at 37 °C with 5% CO2. First, 96-well glass-bottomed plates (MatTek, Ashland, MA) were coated with fibronectin ([…] in PBS supplemented with Ca^2+ and Mg^2+; Sigma, St. Louis, MO, USA) (defining FM). Second, CELLvo^TM Matrix Plus (StemBioSys, San Antonio, TX, USA), which were pre-coated on 96 well glass bottom plates and kept at 4 °C. On the day of plating, CELLvo^TM Matrix Plus plates were transferred to room temperature, rehydrated with phosphate buffer saline (PBS), incubated for 1 h at 37 °C, and washed 2× with PBS. Cells were introduced at a density of 50,000 cells/well to allow the formation of a confluent monolayer in each well (defined as MM). The maintenance protocols followed the manufacturer’s instructions and used the iCell^2 Cardiomyocytes Maintenance media for media changes every 2 days. Experiments were performed between days 5 and 6, as recommended by the manufacturers. Before beginning an experiment, cells were washed in serum-free media (SF media) (Fluorobrite DMEM, Gibco, Thermo Fisher Scientific, Horsham, UK).
(§3) The drug powders were dissolved in DMSO, and four stock concentrations at 1000× the final target concentration were prepared in DMSO. For the experiment, an intermediate concentration 2× the target solution was prepared in SF media. The addition of drugs to the cells was accomplished by replacing 50% of the well volume with the intermediate 2× solution. The same procedure was done for vehicle control using DMSO. The experimental number n = 8/concentration/testing compound in the FM or MM condition, and n = 36 for each positive or negative control in the FM or MM condition.
Cultures of hiPSC-CMs (5–6 days post-plating) were treated with FluoVolt dye (1:1000, Invitrogen, Cat# F10488) in SF media and incubated for 20 min at 37 °C with 5% CO2 and 80% humidity. Multi-well plates were placed in the environmentally controlled stage incubator (37 °C, 5% CO2, water-saturated air atmosphere) (Okolab Inc. Burlingame, CA) of the CellOPTIQ® platform (Clyde Biosciences Ltd., Glasgow, Scotland). The FluoVolt signal was recorded from a 0.2 mm × 0.2 mm area using a 40× (numerical aperture: NA 0.6) Excitation wavelength was 470 ± 10 nm using a light-emitting diode (LED), and emitted light was collected by two photomultipliers (PMTs) at 510–560 nm (channel 1) and 590–650 nm (channel 2), respectively. LED, PMT, and associated power supplies and amplifiers were supplied by Cairn Research Ltd. (Kent, UK) and digitized at 10 kHz and stored on a computer hard drive. In the case of FluoVolt-based action potential recordings, the short wavelength (channel 1, […]) was analyzed for action potential features.
(§4) The dye FluoVolt is loaded into the surface membrane (outer leaflet), and the dye remains within the membrane for many dots, allowing intermittent voltage measurements over the experimental period. In this study, measurements were restricted to within 30 mins of application of the drug. The measurements were made on the same area before/after drug/DMSO addition. […] Baseline spontaneous electrical activity and the associated contractility signal were recorded by capturing 10 s segments of fluorescent signal and video for 2D plates and 15 s for organoids from each well prior to compound addition. Drugs were tested at four concentrations in n = 8 independent replicates (i.e., 8 wells from a single plating) at each concentration. A vehicle control was included for each drug. A 10 s or 15 s recording was then taken 30 min after exposure to the drug or vehicle with only one concentration applied/well.

[2] = test system: hiPSC-CMs (iCell2 Cardiomyocytes) 2D monolayers; test: Contractility measurements using video imaging (ContractilityTool / MUSCLEMOTION); type: cell-based, human; settings: Homo sapiens, Cardiomyocyte, 0.5 h, 30 min, delta over DMSO 0.1%
Description: as §1, §2, §3
as §4, with “applied/well. Offline analysis was performed using proprietary software (CellOPTIQ®).” for “applied/well.”
Short periods (10 s or 15 s) of video were analyzed using the ContractilityTool application (developed by F.L. Burton), which is an implementation of the MUSCLEMOTION algorithm.

[3] = FM monolayer, read-out: APD30 (%DD)
[4] = FM monolayer, read-out: APD90 (%DD)
[5] = FM monolayer, read-out: CL (%DD)
[6] = FM monolayer, read-out: Trise (%DD)
[7] = MM monolayer, read-out: APD30 (%DD)
[8] = MM monolayer, read-out: APD90 (%DD)
[9] = MM monolayer, read-out: CL (%DD)
[10] = MM monolayer, read-out: Trise (%DD)
[11] = FM monolayer, read-out: CtAmp (%DD)
[12] = FM monolayer, read-out: CtD50 (%DD)
[13] = MM monolayer, read-out: CtAmp (%DD)
[14] = MM monolayer, read-out: CtD50 (%DD)

## C[N+](C)(C)CCOC(N)=O [Carbachol]
[1]; [3]
  activity at 0.03 µM: 97 ± 2.3%
  activity at 0.1 µM: 104 ± 2.6%
  activity at 0.3 µM: 102 ± 2.9%
  activity at 1 µM: 103 ± 1.6%
[1]; [4]
  activity at 0.03 µM: 99 ± 1.4%
  activity at 0.1 µM: 100 ± 1.2%
  activity at 0.3 µM: 103 ± 1%
  activity at 1 µM: 110 ± 1.1%
[1]; [5]
  activity at 0.03 µM: 99 ± 2.6%
  activity at 0.1 µM: 105 ± 0.6%
  activity at 0.3 µM: 109 ± 1%
  activity at 1 µM: 114 ± 0.5%
[1]; [6]
  activity at 0.03 µM: 104 ± 11.8%
  activity at 0.1 µM: 125 ± 18.5%
  activity at 0.3 µM: 118 ± 17.5%
  activity at 1 µM: 95 ± 17.7%
[1]; [7]
  activity at 0.03 µM: 105 ± 2.2%
  activity at 0.1 µM: 106 ± 2.4%
  activity at 0.3 µM: 111 ± 1.9%
  activity at 1 µM: 120 ± 2.3%
[1]; [8]
  activity at 0.03 µM: 103 ± 1.8%
  activity at 0.1 µM: 107 ± 1.1%
  activity at 0.3 µM: 111 ± 1.1%
  activity at 1 µM: 118 ± 1%
[1]; [9]
  activity at 0.03 µM: 106 ± 0.3%
  activity at 0.1 µM: 115 ± 0.6%
  activity at 0.3 µM: 122 ± 0.9%
  activity at 1 µM: 131 ± 0.7%
[1]; [10]
  activity at 0.03 µM: 186 ± 29%
  activity at 0.1 µM: 144 ± 20.7%
  activity at 0.3 µM: 143 ± 22.1%
  activity at 1 µM: 143 ± 17.8%
[1]; both FM and MM monolayers, concentration not given
  effect on cycle length (in words): concentration-dependent increase
[2]; [11]
  activity at 0.03 µM: 94 ± 15.9%
  activity at 0.1 µM: 85 ± 10.4%
  activity at 0.3 µM: 102 ± 21.3%
  activity at 1 µM: 109 ± 13.8%
[2]; [12]
  activity at 0.03 µM: 104 ± 2.1%
  activity at 0.1 µM: 103 ± 2%
  activity at 0.3 µM: 108 ± 2.1%
  activity at 1 µM: 107 ± 3.7%
[2]; [13]
  activity at 0.03 µM: 86 ± 6.4%
  activity at 0.1 µM: 135 ± 12.9%
  activity at 0.3 µM: 118 ± 12.9%
  activity at 1 µM: 114 ± 18.4%
[2]; [14]
  activity at 0.03 µM: 98 ± 1.5%
  activity at 0.1 µM: 102 ± 1.8%
  activity at 0.3 µM: 111 ± 2.1%
  activity at 1 µM: 118 ± 1.5%
